Experiments:
[1] = test system: M. tuberculosis H37Rv ATCC 27294 reference strain; format: cell-based, Mycobacterium tuberculosis
M. tuberculosis H37Ra = format: cell-based, Mycobacterium tuberculosis

O=[N+]([O-])c1ccc(/C(O)=C/C(=S)S)cc1 [Compound 11e, (Z)-3-hydroxy-3-(4-nitrophenyl)-prop-2-enedithioic acid]
inhibitory activity compared with 11a [1]: eight times that of 11a | MIC100 in H37Ra (M. tuberculosis H37Ra): active
